Values of other authors as cited in patent US7767860B2, “Substituted amino alcohols” (Auspex Pharmaceuticals, Inc, priority 2007, dated 2010).

Tested on: Mycobacterium tuberculosis
Conditions: fold more potent; Hausler et al 2001; Stauffer et al 2002

CC[C@@H](CO)NCCN[C@@H](CC)CO [Ethambutol, 2-[2-(1-hydroxybutan-2-ylamino)ethylamino]butan-1-ol]
potency of the (S,S)-enantiomer relative to the (R,R)-enantiomer and the meso-isomer: 200-500 times
